Source: paper PMC6277434, “Discovery of a potent HMG-CoA reductase degrader that eliminates statin-induced reductase accumulation and lowers cholesterol” (Nature Communications, 2018)

Assays:
HMGCR = target: T1, HMGCR (Cricetulus griseus, UniProt P00347); assay: HMGCR ubiquitination assay in CHO-7 cells; type: cell-based, Chinese hamster
T1 construct: endogenous in cells; host or cells: CHO-7, CHG, SRD-13A, SRD-15
T1 sequence (P00347 1-887): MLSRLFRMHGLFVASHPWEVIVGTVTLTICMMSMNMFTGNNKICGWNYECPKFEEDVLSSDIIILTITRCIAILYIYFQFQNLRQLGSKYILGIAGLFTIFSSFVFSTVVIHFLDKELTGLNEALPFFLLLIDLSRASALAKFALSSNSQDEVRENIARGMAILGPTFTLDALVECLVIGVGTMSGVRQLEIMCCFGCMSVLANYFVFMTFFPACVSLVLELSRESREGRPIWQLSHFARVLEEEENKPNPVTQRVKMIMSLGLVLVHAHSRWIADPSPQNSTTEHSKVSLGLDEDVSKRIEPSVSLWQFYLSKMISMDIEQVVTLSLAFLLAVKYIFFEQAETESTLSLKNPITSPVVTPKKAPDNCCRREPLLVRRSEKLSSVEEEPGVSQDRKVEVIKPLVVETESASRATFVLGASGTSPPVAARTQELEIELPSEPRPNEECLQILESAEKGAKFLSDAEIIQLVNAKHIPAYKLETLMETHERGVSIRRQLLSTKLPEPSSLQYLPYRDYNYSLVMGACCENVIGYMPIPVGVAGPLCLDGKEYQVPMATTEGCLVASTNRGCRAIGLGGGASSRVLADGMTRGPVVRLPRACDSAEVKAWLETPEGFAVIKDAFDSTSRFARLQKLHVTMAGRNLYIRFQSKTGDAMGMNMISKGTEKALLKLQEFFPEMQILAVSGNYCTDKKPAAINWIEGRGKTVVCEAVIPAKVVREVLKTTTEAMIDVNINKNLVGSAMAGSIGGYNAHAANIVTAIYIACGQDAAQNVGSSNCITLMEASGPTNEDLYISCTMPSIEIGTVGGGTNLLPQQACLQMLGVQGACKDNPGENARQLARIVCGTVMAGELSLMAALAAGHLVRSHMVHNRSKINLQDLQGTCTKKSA
Method: To detect endogenous HMGCR ubiquitination, CHO-7 cells were treated as described in figure legends. Two 10-cm dishes of cells were harvested and lysed in 600 μl of immunoprecipitation buffer (1× PBS, 1% Triton X-100, 5 mM EDTA, 5 mM EGTA) supplemented with protease inhibitor cocktail, 0.1 mM Leupeptin, 10 μM MG-132, and 10mM N-ethylmaleimide. Lysates were pre-cleared with 3 μg of normal rabbit IgG (D110502, Sangon) and 40 μl of protein A/G plus-agarose (sc-2003, Santa Cruz Biotechnology) for 1 h at 4 °C, followed by immunoprecipitation with 10 μg of rabbit polyclonal anti-HMGCR and 100 μl of protein A/G plus-agarose overnight at 4 °C. After washing with immunoprecipitation buffer containing protease inhibitor cocktail for three times, immunoprecipitates were eluted with 2× loading buffer (75 mM Tris-HCl, pH 6.8, 50 mM NaCl, 6% SDS, 15% glycerol, and 0.02% bromophenol blue) at 95 °C for 10 min. Supernatants were then mixed with equal volume of membrane protein solubilization buffer and incubated at 37 °C for 30 min. Samples were finally subjected to immunoblotting as described above.
To assay for the ubiquitination of overexpressed HMGCR protein, cells were first transfected with indicated plasmids. A similar protocol was employed except that lysates were immunoprecipitated with 40 μl of anti-Flag M2 affinity gel (A2220, Sigma-Aldrich).

WT HMGCR = target: T2, WT HMGCR (Cricetulus griseus, UniProt P00347); assay: Degradation of transfected wild-type HMGCR (with Insig-1) in CHO-7 cells; type: cell-based; conditions: cells co-expressing wild-type HMGCR and Insig-1, 5 h
T2 construct: expressed in transfected cells; host or cells: CHO-7
T2 sequence (P00347 1-887): T1 sequence (P00347 1-887)
T2 sequence (O15503 1-277 partner): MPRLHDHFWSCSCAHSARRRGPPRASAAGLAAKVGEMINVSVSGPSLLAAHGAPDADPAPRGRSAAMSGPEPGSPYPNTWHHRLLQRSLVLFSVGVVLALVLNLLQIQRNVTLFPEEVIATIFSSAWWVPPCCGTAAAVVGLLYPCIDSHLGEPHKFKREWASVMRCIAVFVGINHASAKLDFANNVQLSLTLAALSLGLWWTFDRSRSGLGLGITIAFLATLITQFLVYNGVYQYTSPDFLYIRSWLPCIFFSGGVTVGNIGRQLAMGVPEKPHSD
Method: HMGCR protein of DMSO-treated cells was defined as 100. […] Lysates were immunoprecipitated and pellets were probed for anti-ubiquitin (P4D1) and anti-HMGCR (A9). e CHO-7 cells were transfected with indicated plasmids and treated as in d. Lysates were immunoprecipitated with anti-Flag M2 beads, and pellets were probed for anti-ubiquitin (HA) and anti-HMGCR (Flag). f CHO-7 cells were transfected with indicated plasmids, then treated with Cmpd 81 for 5 h. […] Data are from three independent experiments and presented as mean ± SD. Source data are provided as a Source Data File.
Cells were harvested and homogenized in the RIPA buffer (50 mM Tris-HCl, pH 8.0, 150 mM NaCl, 2 mM MgCl2, 1.5% NP-40, 0.1% SDS, and 0.5% sodium deoxycholate) supplemented with protease cocktail inhibitor, 10 μM MG-132, 10 μg ml^−1 leupeptin and 1 mM phenylmethylsulfonyl fluoride. The protein concentrations of lysates were determined using BCA method (Beyotime). […] Western blot images were captured by Amersham Imager 600 (GE Healthcare), and integrated optical intensities of each band were quantified by Image-Pro Plus 6 software (Media Cybernetics). […]

C=CCC(O)(CC=C)CCCC(C)C1CCC2C3C(O)C=C4C(C)(C)C(O)CCC4(C)C3CCC12C (stereo not drawn) [Cmpd 81]
ubiquitination of endogenous HMGCR (HMGCR; CHO-7, with 10 μM MG-132, 3 h): dose-dependent increase | ubiquitination of transfected HMGCR (HMGCR; cells co-expressing wild-type HMGCR and Insig-1): markedly increase | protein level of transfected wild-type HMGCR (WT HMGCR): a reduction of the protein level
